IC50 and inhibition data for 12 compounds are collected here from US20070135383A1, “Phospholipase inhibitors, including multi-valent phospholipase inhibitors, and use thereof, including as lumen-localized phospholipase inhibitors” (priority 2005, published 2007).

Where two headings read alike, the source gives them in different places. Bounds are passed on as bounds.

A word on the IC50: it is the concentration needed to halve the response being measured. As usually defined, the inhibition is the share of the control response that was lost under treatment.

What all share (experiment): Fluorimetric PPyrPM assay for group 1B PLA2 inhibition (Example 12)
Assay type in all cases: biochemical

The target of test [1] is T1, human group 1B PLA2 (hps PLA2) (Homo sapiens, UniProt P04054).
T1 construct: made in house; host or cells: E. coli
The settings on record: for inhibition at 15 µM: read-out: ILYPSA % inhibition at 15 μM hps PLA2. From the text:
(§1) In this example, a fluorimetric assay procedure was used to evaluate the indole and indole-related compounds of the invention as inhibitors of group 1B phospholipase A2 (PLA2) from human, mouse and porcine. A description of this assay is found in articles: Leslie, C C and Gelb, M H (2004) Methods in Molecular Biology “Assaying phospholipase A2 activity”, 284:229-242; Singer, A G, et al. (2002) Journal of Biological Chemistry “Interfacial kinetic and binding properties of the complete set of human and mouse groups I, II, V, X, and XII secreted phospholipases A2”, 277:48535-48549, which are incorporated herein as references.
(§2) In general, this assay used a phosphatidylmethanol substrate with a pyrene fluorophore on the terminal end of the sn-2 fatty acyl chain. Without being bound by theory, close proximity of the pyrenes from neighboring phospholipids in a phospholipid vesicle caused the spectral properties to change relative to that of monomeric pyrene. Bovine serum albumin was present in the aqueous phase and captured the pyrene fatty acid when it is liberated from the glycerol backbone owing to the PLA2-catalyzed reaction. However, a potent inhibitor can inhibit the liberation of pyrene fatty acid from the glycerol backbone. […] The effect of a given inhibitor and inhibitor concentration on human, mouse and porcine phospholipase was determined.
(§3) Recombinant human and mouse group 1B PLA2 were cloned and expressed in E. coli as insoluble inclusion bodies. The inclusion bodies were isolated and purified by sonicating cell pellet in lysis buffer (50 mM Tris-HCl pH 7.0, 250 mM NaCl, 0.5% Triton 100), centrifugation at 12,000×g, and washing three times in washing buffer (20 mM Tris-HCl pH 7.0, 250 mM NaCl, 0.5% Triton 100). Then the inclusion bodies were dissolved in dissolving buffer (50 mM Tris-HCl pH 7.0, 250 mM NaCl, 6 M Guanidine-HCl, 1 mM DTT) and dialyzed four times against 10 volumes of refolding buffer (20 mM Tris-HCl pH 7.0, 250 mM NaCl, 0.5M Guanidine-HCl, 5% (w/w) Glycerol, 2 mM reduced glutathione and 0.4 mM oxidized glutathione) at 4° C. The correctly refolded proteins were concentrated using Amicon Stirred cell under nitrogen pressure (<70 psi) and dialyzed against 10 volumes of 50 mM Tris-HCl pH 7.0, 250 mM NaCl and 5% (w/w) glycerol. Human and mouse group 1B PLA2 were further purified by High S ion exchange and gel filtration columns.
(§4) The following reagents and equipments were obtained from commercial vendors: • 1. Porcine group 1B phospholipase A2 • 2. 1-hexadecanoyl-2-(1-pyrenedecanoyl)-sn-glycero-3-phosphomethanol (PPyrPM) • 3. Bovine serum albumin (BSA, fatty acid free) • 4. 2-Amino-2-(hydroxymethyl)-1,3-propanediol, hydrochloride (Tris-HCl) • 5. Calcium chloride • 6. Potassium chloride • 7. Solvents: DMSO, toluene, isopropanol, ethanol • 8. Molecular Devices SPECTRAmax microplate spectrofluorometer • 9. Costar 96 well black wall/clear bottom plate
(§5) The following reagents were prepared: • 10. PPyrPM stock solution (1 mg/ml) in toluene:isopropanol (1:1) • 11. ILY104 inhibitor stock solution (10 mM) in DMSO • 12. 3% (w/v) bovine serum albumin (BSA) • 13. Stock buffer: 50 mM Tris-HCl, pH 8.0, 50 mM KCl and 1 mM CaCl2
(§6) The following procedure was performed to evaluate the inhibitory potency of the evaluated compounds. • 14. An assay buffer was prepared by adding 3 ml 3% BSA to 47 ml stock buffer. • 15. Solution A was prepared by adding serially diluted inhibitors to the assay buffer. Inhibitors were three-fold diluted in stock buffer in a series of 8 from 15 uM. • 16. Solution B was prepared by adding human, mouse or porcine PLA2 to the assay buffer. This solution was prepared immediately before use to minimize enzyme activity loss. • 17. Solution C was prepared by adding 30 ul PPyrPM stock solution to 90 ul ethanol, and then all 120 ul of PPyrPM solution was transferred drop-wise over approximately 1 min to the continuously stirring 8.82 ml assay buffer to form a final concentration of 4.2 uM PPyrPM vesicle solution. • 18. […]

Test [2] concerns the target T2, mouse group 1B PLA2 (mps PLA2) (Mus musculus, UniProt Q9Z0Y2).
T2 construct: made in house; host or cells: E. coli
The settings on record: for inhibition at 15 µM: read-out: ILYPSA % inhibition at 15 μM mps PLA2.
Text: as §1, §2, §3, §4, §5, §6

Test [3] has as its target T3, porcine group 1B PLA2 (pps PLA2) (Sus scrofa, UniProt P00592).
T3 construct: purchased
The settings on record: porcine pancreas secreted PLA2; read-out: ILYPSA IC50 pps PLA2.
Text: as §1, §2, §4, §5
The following procedure was performed to evaluate the inhibitory potency of the evaluated compounds. • 14. An assay buffer was prepared by adding 3 ml 3% BSA to 47 ml stock buffer. • 15. Solution A was prepared by adding serially diluted inhibitors to the assay buffer. Inhibitors were three-fold diluted in stock buffer in a series of 8 from 15 uM. • 16. Solution B was prepared by adding human, mouse or porcine PLA2 to the assay buffer. This solution was prepared immediately before use to minimize enzyme activity loss. • 17. Solution C was prepared by adding 30 ul PPyrPM stock solution to 90 ul ethanol, and then all 120 ul of PPyrPM solution was transferred drop-wise over approximately 1 min to the continuously stirring 8.82 ml assay buffer to form a final concentration of 4.2 uM PPyrPM vesicle solution. • 18. The SPECTRAmax microplate spectrofluorometer was set at 37° C. • 19. 100 ul of solution A was added to each inhibition assay well of a costar 96 well black wall/clear bottom plate • 20. 100 ul of solution B was added to each inhibition assay well of a costar 96 well black wall/clear bottom plate. • 21. 100 ul of solution C was added to each inhibition assay well of a costar 96 well black wall/clear bottom plate. • 22. The plate was incubated inside the spectrofluorometer chamber for 3 min. • 23. The fluorescence was read using an excitation of 342 nm and an emission of 395 nm.
Evaluated compounds were tested in duplicate and their values were averaged to plot the inhibition curve and calculate the IC50. Compared to uninhibited controls, lower fluorescent signal at an emission of 395 nm in test reactions evidenced inhibition of PLA2. […] Compounds initially found to be active were repeated to confirm their inhibitory activity. […]

[4] abbreviates: human pancreas secreted PLA2, read-out: ILYPSA IC50 hps PLA2.
Where [5] appears, read: mouse pancreas secreted PLA2, read-out: ILYPSA IC50 mps PLA2.

T2 sequence (Q9Z0Y2 23-146): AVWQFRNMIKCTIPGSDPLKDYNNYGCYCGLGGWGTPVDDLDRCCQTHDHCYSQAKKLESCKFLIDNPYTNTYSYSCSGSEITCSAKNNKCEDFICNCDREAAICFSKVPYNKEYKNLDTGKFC
T3 sequence (P00592 23-146): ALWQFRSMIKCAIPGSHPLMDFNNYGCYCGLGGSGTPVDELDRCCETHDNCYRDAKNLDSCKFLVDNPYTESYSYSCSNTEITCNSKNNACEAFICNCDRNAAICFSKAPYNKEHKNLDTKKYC
T1 sequence (P04054 23-148): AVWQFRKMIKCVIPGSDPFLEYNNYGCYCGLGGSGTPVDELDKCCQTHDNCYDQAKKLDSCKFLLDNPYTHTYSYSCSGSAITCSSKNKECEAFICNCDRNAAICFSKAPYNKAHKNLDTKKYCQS

Regarding `Cc1c(C(=O)C(N)=O)c2c(OCC(=O)O)cccc2n1CCCCCCCCCCCCSCCCCCCCCCCCCn1c(C)c(C(=O)C(N)=O)c2c(OCC(=O)O)cccc21` [IL-V-29, 2,2′-(1,1′-(12,12′-thiobis(dodecane-12,1-diyl))bis(3-(2-amino-2-oxoacetyl)-2-methyl-1H-indole-4,1-diyl))bis(oxy)diacetic acid], the values for the IC50 in test [1] (setting [4]), in test [2] (setting [5]) and in test [3] were 460 nM, 790 nM and 530 nM, respectively.
As for `Cc1c(C(=O)C(N)=O)c2c(OCC(=O)O)nccc2n1Cc1ccccc1-c1ccccc1` [ILY-II-4, (3-Aminooxalyl-1-biphenyl-2-ylmethyl-2-methyl-1H-pyrrolo[3,2-c]pyridin-4-yloxy)-acetic acid], the 50% inhibitory concentration (IC50) in test [1] is 80 nM; in test [2] it was 70 nM; in test [3], less than 20 nM.
On to `Cc1c(C(=O)C(N)=O)c2c(OCC(=O)NS(C)(=O)=O)nccc2n1Cc1ccccc1` [ILY-II-7, 2-[1-Benzyl-4-(2-methanesulfonylamino-2-oxo-ethoxy)-2-methyl-1H-pyrrolo[3,2-c]pyridin-3-yl]-2-oxo-acetamide], for which the IC50 in test [1] (setting [4]) is 2070 nM; in test [2] (setting [5]), 1050 nM; in test [3] it was 40 nM.
Regarding `CCCCCCCCn1c(C)c(C(=O)C(N)=O)c2c(OCC(=O)O)nccc21` [ILY-II-8, (3-Aminooxalyl-2-methyl-1-octyl-1H-pyrrolo[3,2-c]pyridin-4-yloxy)-acetic acid], the IC50 in test [1] (setting [4]) turned out to be 270 nM; in test [2] (setting [5]) it was 120 nM; in test [3], 80 nM.
Turning to `CCc1c(C(=O)C(N)=O)c2c(OCC(=O)O)nccc2n1Cc1ccccc1` [ILY-II-9, 2-(3-(2-amino-2-oxoacetyl)-1-benzyl-2-ethyl-1H-pyrrolo[3,2-c]pyridin-4-yloxy)acetic acid], the IC50 worked out at 1460 nM in test [1] (setting [4]), 350 nM in test [2] (setting [5]) and 30 nM in test [3].
Take `CCC(Oc1nccc2c1c(C(=O)C(N)=O)c(C)n2Cc1ccccc1)C(=O)O` (centres unmarked) [ILY-II-11, 2-(3-Aminooxalyl-1-benzyl-2-methyl-1H-pyrrolo[3,2-c]pyridin-4-yloxy)-butyric acid]: the IC50 in test [1] is 480 nM; in test [2] it was 30 nM; in test [3], less than 20 nM.
On to `Cc1c(C(=O)C(N)=O)c2c(OCC(=O)NC(CC(=O)O)C(=O)O)nccc2n1Cc1ccccc1` (centres unmarked) [ILY-II-12, 2-(2-(3-(2-amino-2-oxoacetyl)-1-benzyl-2-methyl-1H-pyrrolo[3,2-c]pyridin-4-yloxy)acetamido)succinic acid], for which the inhibition at 15 µM in test [1] (human pancreas secreted PLA2) was found to be 16.6%; in test [2] (mouse pancreas secreted PLA2), 35.7%. Besides, the IC50 in test [3] was determined as 3710 nM.
As to `Cc1c(CC(N)=O)c2c(OCC(=O)O)cccc2n1Cc1ccccc1` [ILY-III-22, (1-Benzyl-3-carbamoylmethyl-2-methyl-1H-indol-4-yloxy)-acetic acid], the concentration for half-maximal inhibition (IC50) in test [1] (setting [4]) amounted to 1320 nM; in test [2] (setting [5]), 890 nM.
As for `Cc1c(C(=O)C(N)=O)c2c(OCC(=O)O)c(Br)ccc2n1Cc1ccccc1` [ILY-IV-3, (3-Aminooxalyl-1-benzyl-5-bromo-2-methyl-1H-indol-4-yloxy)-acetic acid], the inhibition at 15 µM in test [1] (human pancreas secreted PLA2) stood at 35.8%; in test [2] (mouse pancreas secreted PLA2), 39.8%. In addition, the concentration for half-maximal inhibition (IC50) in test [3] is 5870 nM.
For `Cc1c(C(=O)C(N)=O)c2c(OC(C(=O)O)C(=O)O)cccc2n1Cc1ccccc1` [ILY-IV-8, 2-(3-Aminoooxalyl-1-benzyl-2-methyl-1H-indol-4-yloxy)-malonic acid] the same measures were 41%, 61.2% and 2250 nM.
For `Cc1c(C(=O)C(N)=O)c2c(OCC(=O)O)ccc(Br)c2n1Cc1ccccc1` [ILY-IV-9, (3-Aminooxalyl-1-benzyl-7-bromo-2-methyl-1H-indol-4-yloxy)-acetic acid], the IC50 came out at 540 nM in test [1] (setting [4]), 360 nM in test [2] (setting [5]) and 40 nM in test [3].
For the compound `CCC(Oc1cccc2c1c(C(=O)C(N)=O)c(C)n2Cc1ccccc1)C(=O)O` (centres unmarked) [ILY-IV-20, 2-(3-Aminooxalyl-1-benzyl-2-methyl-1H-indol-4-yloxy)-butyric acid], the IC50 in test [1] is 180 nM; in test [2] (setting [5]), less than 20 nM; in test [3], less than 20 nM.
